The record followed here is publication PMC7358528, “Tuning Scorpion Toxin Selectivity: Switching From KV1.1 to KV1.3” (Frontiers in Pharmacology, 2020).

Like-named read-outs stand apart in the source and are kept apart here. Where a SMILES comes first, the peptide text is derived from it. Bridges are numbered along the chain shown (N, C = ends).

Test [1] addresses rat KV1.1 (rat) (UniProt P10499).
For test [2], the target named is rat KV1.2 (rat) (UniProt P63142).
Test [3] has as its target T1, KV1.3 (Homo sapiens, UniProt P22001).
Test [4] concerns the target rat KV1.6 (rat) (UniProt P17659).
Test [5] concerns the target rat KV1.1 (rat) (UniProt P10499). This is another data set of the same source.
In another test the target is T2, KV1.1 (Rattus norvegicus, UniProt P10499).
T2 construct: expressed in transfected cells; host or cells: Xenopus laevis oocytes injected with cRNA
The test can be described thus: Two-electrode voltage clamp on KV1.1 expressed in Xenopus oocytes. It is filed as cell-based. As to conditions: for IC50: rKV1.1, Xenopus oocytes, two-electrode voltage clamp, ND96 pH 7.4, 18–22°C, 0 mV from −90 mV. The procedure: (§1) Ion Channel Expression in Xenopus Oocytes
(§2) The major pipeline of ion channel expression in oocytes was described previously ([Peigneur et al., 2011]). Briefly, for the expression of KV genes (rat (r)KV1.1, rKV1.2, human (h)KV1.3, rKV1.4, rKV1.5, and rKV1.6) in Xenopus laevis oocytes, linearized plasmids containing the respective gene sequences were transcribed using the T7 mMESSAGE-mMACHINE transcription kit (Ambion). 50 nl of cRNA solution (1 ng/nl) were injected into oocytes using a micro-injector (Drummond Scientific). The oocytes were incubated in ND96 solution: 96 mM NaCl, 2 mM KCl, 1.8 mM CaCl2, 2 mM MgCl2 and 5 mM HEPES, pH 7.4, supplemented with 50 mg/l gentamycin sulfate.
(§3) Electrophysiological Recordings
(§4) Two-electrode voltage-clamp recordings were performed at room temperature (18–22°C) using a Geneclamp 500 amplifier (Molecular Devices) controlled by a pClamp data acquisition system (Axon Instruments) as described ([Peigneur et al., 2011]). Bath solution composition was ND96. KV currents were evoked by 250-ms depolarization to 0 mV from a holding potential of −90 mV, followed by 250-ms pulses to −50 mV. For current–voltage relationship studies, currents were evoked by 10-mV depolarization steps. Concentration–response curves were constructed, in which the percentage of current inhibition was plotted as a function of toxin concentration. Data were fitted with the Hill equation: y = 100/[1 + (IC50/[toxin])^h], where y is the amplitude of the toxin-induced effect, [toxin] is toxin concentration, and h is the Hill coefficient. Comparison of two sample means was performed using a paired Student’s t-test (p-value of 0.05 was used as a threshold of significance). All data were obtained in at least three independent experiments (n ≥ 3) and are presented as mean ± standard error of the mean.
On the technique in general: Two-electrode voltage clamp holds a large cell at a set potential and records current.

The target in a further test is T3, KV1.2 (Rattus norvegicus, UniProt P63142).
T3 construct: expressed in transfected cells; host or cells: Xenopus laevis oocytes injected with cRNA
Nature of the test: Two-electrode voltage clamp on KV1.2 expressed in Xenopus oocytes. It is filed as cell-based. The procedure: as §1, §2, §3, §4

For a further test, the target named is T4, KV1.6 (Rattus norvegicus, UniProt P17659).
T4 construct: expressed in transfected cells; host or cells: Xenopus laevis oocytes injected with cRNA
The test can be described thus: Two-electrode voltage clamp on KV1.6 expressed in Xenopus oocytes. It is filed as cell-based. The following applies: mean ± SEM, n ≥ 3. The procedure: as §1, §2, §3
(§5) Two-electrode voltage-clamp recordings were performed at room temperature (18–22°C) using a Geneclamp 500 amplifier (Molecular Devices) controlled by a pClamp data acquisition system (Axon Instruments) as described ([Peigneur et al., 2011]). Bath solution composition was ND96. KV currents were evoked by 250-ms depolarization to 0 mV from a holding potential of −90 mV, followed by 250-ms pulses to −50 mV. For current–voltage relationship studies, currents were evoked by 10-mV depolarization steps. Concentration–response curves were constructed, in which the percentage of current inhibition was plotted as a function of toxin concentration. […]

The target in test [6] is T1, KV1.3. Nature of the test: Two-electrode voltage clamp on KV1.3 expressed in Xenopus oocytes. Further details: expressed in transfected cells; host or cells: Xenopus laevis oocytes injected with cRNA. It is filed as cell-based. The following applies: for inhibition at 0.01 µM: 10 nM, KV1.3, Xenopus oocytes, read-out: inhibition of potassium current. The procedure:
as §1, §2, §3, §4

A further test concerns the target T5, KV1.5 (Rattus norvegicus, UniProt P19024).
T5 construct: expressed in transfected cells; host or cells: Xenopus laevis oocytes injected with cRNA
The test can be described thus: Two-electrode voltage clamp on KV1.5 expressed in Xenopus oocytes. The following applies: rKV1.5, Xenopus oocytes, up to 1 µM. It counts as cell-based. The procedure:
as §1, §2, §3, §5

Another test has as its target T6, KV1.4 (Rattus norvegicus, UniProt P15385).
T6 construct: expressed in transfected cells; host or cells: Xenopus laevis oocytes injected with cRNA
The test can be described thus: Two-electrode voltage clamp on KV1.4 expressed in Xenopus oocytes. It is filed as cell-based. As to conditions: rKV1.4, Xenopus oocytes, up to 1 µM. The protocol:
as §1, §2, §3, §5

Test [7] concerns the target rat KV1.1 (rat) (UniProt P10499). This is another data set of the same source.
The target in test [8] is rat KV1.2 (rat) (UniProt P63142). The source holds these as a separate data set.
In test [9] the target is T1, KV1.3. The source holds these as a separate data set.
In test [10] the target is rat KV1.6 (rat) (UniProt P17659). This is another data set of the same source.
Chain of rat KV1.6 (rat) (P17659 whole entry): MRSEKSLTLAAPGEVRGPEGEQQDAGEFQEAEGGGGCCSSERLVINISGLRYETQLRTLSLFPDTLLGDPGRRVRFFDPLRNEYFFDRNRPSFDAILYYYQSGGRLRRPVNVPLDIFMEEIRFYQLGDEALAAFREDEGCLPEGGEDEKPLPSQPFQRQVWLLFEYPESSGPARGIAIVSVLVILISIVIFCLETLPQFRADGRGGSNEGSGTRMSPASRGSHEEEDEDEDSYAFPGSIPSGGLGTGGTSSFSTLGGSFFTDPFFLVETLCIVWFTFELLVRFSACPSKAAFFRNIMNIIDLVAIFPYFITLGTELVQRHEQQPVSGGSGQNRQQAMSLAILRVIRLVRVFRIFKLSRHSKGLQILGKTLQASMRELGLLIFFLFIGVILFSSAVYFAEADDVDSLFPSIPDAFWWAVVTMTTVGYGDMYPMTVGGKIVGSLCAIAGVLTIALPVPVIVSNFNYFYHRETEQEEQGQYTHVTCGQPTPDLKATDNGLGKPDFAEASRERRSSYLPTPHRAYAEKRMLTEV

T2 sequence (P10499 whole entry): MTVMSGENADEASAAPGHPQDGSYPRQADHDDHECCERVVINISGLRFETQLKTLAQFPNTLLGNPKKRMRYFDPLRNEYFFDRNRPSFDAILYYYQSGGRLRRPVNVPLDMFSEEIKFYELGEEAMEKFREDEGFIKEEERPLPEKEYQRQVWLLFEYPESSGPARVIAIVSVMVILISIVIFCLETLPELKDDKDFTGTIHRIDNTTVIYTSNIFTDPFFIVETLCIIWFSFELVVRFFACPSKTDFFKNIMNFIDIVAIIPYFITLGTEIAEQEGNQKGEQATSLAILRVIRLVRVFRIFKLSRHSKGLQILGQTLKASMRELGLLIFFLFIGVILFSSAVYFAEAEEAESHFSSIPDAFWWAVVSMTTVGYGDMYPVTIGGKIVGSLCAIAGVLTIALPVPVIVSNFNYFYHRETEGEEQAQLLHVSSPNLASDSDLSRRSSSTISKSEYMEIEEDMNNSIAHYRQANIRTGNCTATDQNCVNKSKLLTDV
Chain of rat KV1.1 (rat) (P10499 whole entry): as above
T3 sequence (P63142 whole entry): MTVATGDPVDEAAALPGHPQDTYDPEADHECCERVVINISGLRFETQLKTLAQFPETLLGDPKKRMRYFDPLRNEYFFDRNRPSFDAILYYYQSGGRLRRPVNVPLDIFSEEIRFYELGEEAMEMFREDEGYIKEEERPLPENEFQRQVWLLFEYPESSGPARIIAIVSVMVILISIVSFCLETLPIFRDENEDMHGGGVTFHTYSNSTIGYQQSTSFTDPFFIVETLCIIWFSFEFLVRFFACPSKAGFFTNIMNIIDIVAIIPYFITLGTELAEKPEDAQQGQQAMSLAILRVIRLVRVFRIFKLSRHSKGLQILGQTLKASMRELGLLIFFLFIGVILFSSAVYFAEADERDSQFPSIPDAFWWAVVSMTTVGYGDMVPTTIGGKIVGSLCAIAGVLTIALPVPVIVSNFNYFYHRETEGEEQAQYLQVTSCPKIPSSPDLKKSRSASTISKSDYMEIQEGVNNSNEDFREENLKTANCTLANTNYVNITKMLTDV
T1 sequence (P22001 whole entry): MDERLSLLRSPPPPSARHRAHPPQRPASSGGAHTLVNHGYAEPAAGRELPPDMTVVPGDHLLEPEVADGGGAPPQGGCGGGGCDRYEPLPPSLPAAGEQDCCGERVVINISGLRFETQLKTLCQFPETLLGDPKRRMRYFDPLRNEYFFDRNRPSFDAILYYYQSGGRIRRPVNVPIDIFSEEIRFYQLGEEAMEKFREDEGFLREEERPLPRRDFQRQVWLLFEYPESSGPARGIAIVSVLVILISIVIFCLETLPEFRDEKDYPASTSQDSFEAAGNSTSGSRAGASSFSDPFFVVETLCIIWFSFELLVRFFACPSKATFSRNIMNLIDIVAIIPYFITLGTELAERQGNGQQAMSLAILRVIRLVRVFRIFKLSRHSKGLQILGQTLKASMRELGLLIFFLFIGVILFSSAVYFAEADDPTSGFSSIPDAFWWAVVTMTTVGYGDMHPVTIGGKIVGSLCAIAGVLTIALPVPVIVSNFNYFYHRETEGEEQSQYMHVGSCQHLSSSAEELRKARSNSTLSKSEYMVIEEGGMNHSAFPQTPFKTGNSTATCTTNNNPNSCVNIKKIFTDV
T4 sequence (P17659 whole entry): as the sequence (P17659 whole entry) above
Chain of rat KV1.2 (rat) (P63142 whole entry): as the sequence (P63142 whole entry) above
T6 sequence (P15385 whole entry): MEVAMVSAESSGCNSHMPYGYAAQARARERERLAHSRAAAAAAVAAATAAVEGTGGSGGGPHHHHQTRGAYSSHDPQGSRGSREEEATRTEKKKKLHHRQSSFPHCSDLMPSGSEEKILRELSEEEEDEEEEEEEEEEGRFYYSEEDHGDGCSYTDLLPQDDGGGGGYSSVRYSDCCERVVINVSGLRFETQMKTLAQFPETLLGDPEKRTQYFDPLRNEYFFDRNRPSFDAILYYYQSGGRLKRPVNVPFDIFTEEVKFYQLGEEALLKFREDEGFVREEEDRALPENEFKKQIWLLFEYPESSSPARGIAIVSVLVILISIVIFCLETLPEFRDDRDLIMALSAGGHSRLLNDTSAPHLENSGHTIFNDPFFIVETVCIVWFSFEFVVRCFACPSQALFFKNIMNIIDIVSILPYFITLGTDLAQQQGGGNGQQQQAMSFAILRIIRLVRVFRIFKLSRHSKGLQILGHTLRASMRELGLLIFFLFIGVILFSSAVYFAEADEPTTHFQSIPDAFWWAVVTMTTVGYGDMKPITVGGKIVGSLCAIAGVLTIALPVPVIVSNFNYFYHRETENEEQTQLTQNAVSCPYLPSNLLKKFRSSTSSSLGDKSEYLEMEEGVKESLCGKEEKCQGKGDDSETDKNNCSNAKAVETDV
T5 sequence (P19024 whole entry): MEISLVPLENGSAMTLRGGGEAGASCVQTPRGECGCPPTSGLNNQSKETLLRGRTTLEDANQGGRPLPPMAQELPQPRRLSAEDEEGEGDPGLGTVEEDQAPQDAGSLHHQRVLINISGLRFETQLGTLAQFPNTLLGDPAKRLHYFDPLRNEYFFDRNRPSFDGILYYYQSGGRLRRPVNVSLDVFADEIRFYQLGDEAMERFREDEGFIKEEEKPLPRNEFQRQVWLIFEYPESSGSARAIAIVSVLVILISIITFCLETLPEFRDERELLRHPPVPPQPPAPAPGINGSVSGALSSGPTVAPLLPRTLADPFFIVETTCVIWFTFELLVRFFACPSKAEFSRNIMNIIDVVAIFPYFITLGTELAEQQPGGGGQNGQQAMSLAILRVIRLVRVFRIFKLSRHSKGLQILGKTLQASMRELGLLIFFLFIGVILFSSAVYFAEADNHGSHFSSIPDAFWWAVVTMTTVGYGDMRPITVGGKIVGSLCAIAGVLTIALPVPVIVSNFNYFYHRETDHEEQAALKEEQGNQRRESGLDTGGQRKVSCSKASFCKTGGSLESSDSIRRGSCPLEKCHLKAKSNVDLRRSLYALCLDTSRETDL

In the test with rat KV1.1 (rat) [1], “MeKTx13-3, natural toxin from Mesobuthus eupeus venom (peptide)” registered a percent of potassium current blocked at 10 nM toxin, two-electrode voltage clamp, X. laevis oocytes greater than 95%. Further, the IC50 of inhibition of potassium current, two-electrode voltage clamp, X. laevis oocytes was found to be 106 nM in the test with rat KV1.2 (rat) [2], 8.9 nM with KV1.3 [3], 63.4 nM in the test with rat KV1.6 (rat) [4] and 1.9 nM with rat KV1.1 (rat) [5].
As to `CC[C@H](C)[C@H](NC(=O)CNC(=O)[C@@H](N)C(C)C)C(=O)N[C@@H](CC(N)=O)C(=O)N[C@H](C(=O)N[C@@H](CCCCN)C(=O)N[C@H]1CSSC[C@@H]2NC(=O)[C@H](CCCCN)NC(=O)CNC(=O)[C@H](Cc3ccccc3)NC(=O)[C@H](CCCNC(=N)N)NC(=O)[C@H](CCSC)NC(=O)CNC(=O)[C@H](C)NC(=O)[C@H](CC(=O)O)NC(=O)[C@H](CCCCN)NC(=O)[C@@H]3CSSC[C@@H](C(=O)N[C@H](C(=O)N4CCC[C@H]4C(=O)N[C@@H](CCCCN)C(N)=O)[C@@H](C)O)NC(=O)[C@H](CC(=O)O)NC(=O)[C@H](CSSC[C@H](NC(=O)[C@H](CCC(N)=O)NC(=O)CNC(=O)[C@H](CO)NC(=O)[C@H](Cc4c[nH]cn4)NC(=O)[C@H](CCCCN)NC1=O)C(=O)N[C@@H](CC(C)C)C(=O)N[C@@H](CCCCN)C(=O)N1CCC[C@H]1C(=O)N3)NC(=O)[C@H](CCCCN)NC(=O)CNC(=O)[C@H](CC(N)=O)NC(=O)[C@H]([C@@H](C)CC)NC2=O)C(C)C` [MeKTx13-3] (H-VGINVKCKHSGQCLKPCKDAGMRFGKCINGKCDCTPK-NH2; disulfide 7-27, 13-32, 17-34; N-terminus and C-terminus assumed), the Hill coefficient (as a rule, a measure of the steepness of the concentration-response curve) was 0.9 ± 0.1 on KV1.1 (KV1.1 concentration–response, mean ± SEM, n ≥ 3); 1.3 ± 0.3 at KV1.2 (KV1.2 concentration–response, mean ± SEM, n ≥ 3); 1.0 ± 0.1 at KV1.6 (KV1.6 concentration–response); 0.8 ± 0.2 at KV1.3 [6] (KV1.3 concentration–response, mean ± SEM, n ≥ 3). Also, the inhibition (usually the share of the control response that was lost under treatment) at 0.01 µM at KV1.3 [6] is roughly 50%.
As for `CC[C@H](C)[C@H](NC(=O)CNC(=O)[C@@H](N)C(C)C)C(=O)N[C@@H](CC(N)=O)C(=O)N[C@H](C(=O)N[C@@H](CCCCN)C(=O)N[C@H]1CSSC[C@@H]2NC(=O)[C@H](CCCCN)NC(=O)CNC(=O)[C@H](Cc3ccccc3)NC(=O)[C@H](CCCNC(=N)N)NC(=O)[C@H](CCSC)NC(=O)CNC(=O)[C@H](C)NC(=O)[C@H](CC(=O)O)NC(=O)[C@H](CCCCN)NC(=O)[C@@H]3CSSC[C@@H](C(=O)N[C@H](C(=O)N4CCC[C@H]4C(=O)N[C@@H](CCCCN)C(=O)O)[C@@H](C)O)NC(=O)[C@H](CC(=O)O)NC(=O)[C@H](CSSC[C@H](NC(=O)[C@H](CCC(N)=O)NC(=O)CNC(=O)[C@H](CO)NC(=O)[C@H](Cc4c[nH]cn4)NC(=O)[C@H](CCCCN)NC1=O)C(=O)N[C@@H](CC(C)C)C(=O)N[C@@H](CCCCN)C(=O)N1CCC[C@H]1C(=O)N3)NC(=O)[C@H](CCCCN)NC(=O)CNC(=O)[C@H](CC(N)=O)NC(=O)[C@H]([C@@H](C)CC)NC2=O)C(C)C` [Recombinant MeKTx13-3] (H-VGINVKCKHSGQCLKPCKDAGMRFGKCINGKCDCTPK-OH; disulfide 7-27, 13-32, 17-34), half-maximal inhibition against KV1.1 (mean ± SEM, n ≥ 3) (IC50) was put at 6.7 ± 2.7 nM. The inhibition at 0.01 µM on KV1.3 [6] was roughly 50%.
For `CC[C@H](C)[C@H](NC(=O)CNC(=O)[C@@H](N)C(C)C)C(=O)N[C@@H](CC(N)=O)C(=O)N[C@H](C(=O)N[C@@H](CCCCN)C(=O)N[C@H]1CSSC[C@@H]2NC(=O)[C@H](CCCCN)NC(=O)CNC(=O)[C@H](Cc3ccccc3)NC(=O)[C@H](CCCNC(=N)N)NC(=O)[C@H](CCSC)NC(=O)CNC(=O)[C@H](C)NC(=O)[C@H](CC(=O)O)NC(=O)[C@H](C)NC(=O)[C@@H]3CSSC[C@@H](C(=O)N[C@H](C(=O)N4CCC[C@H]4C(=O)N[C@@H](CCCCN)C(=O)O)[C@@H](C)O)NC(=O)[C@H](CCCNC(=N)N)NC(=O)[C@H](CSSC[C@H](NC(=O)[C@H](C)NC(=O)CNC(=O)[C@H](CO)NC(=O)[C@H](Cc4c[nH]cn4)NC(=O)[C@H](CCCCN)NC1=O)C(=O)N[C@@H](CC(C)C)C(=O)N[C@@H](C)C(=O)N1CCC[C@H]1C(=O)N3)NC(=O)[C@H](CCCCN)NC(=O)CNC(=O)[C@H](CC(N)=O)NC(=O)[C@H]([C@@H](C)CC)NC2=O)C(C)C` [MeKTx13-3_AAAR] (H-VGINVKCKHSGACLAPCADAGMRFGKCINGKCRCTPK-OH; disulfide 7-27, 13-32, 17-34), the inhibition at 0.01 µM on KV1.1 (10 nM, KV1.1, Xenopus oocytes, read-out: inhibition of potassium current) was roughly 15%; on KV1.2 (10 nM, KV1.2, Xenopus oocytes, read-out: inhibition of potassium current), roughly 5%; at KV1.3 [6], roughly 50%. The 50% inhibitory concentration (IC50) (in general, the concentration that gives 50% inhibition) at KV1.1 (mean ± SEM, n ≥ 3) is 541 ± 48.6 nM; at KV1.2 (rKV1.2, Xenopus oocytes, two-electrode voltage clamp, ND96 pH 7.4, 18–22°C, 0 mV from −90 mV, mean ± SEM, n ≥ 3), 208 ± 15.2 nM; against KV1.6 (rKV1.6, Xenopus oocytes, two-electrode voltage clamp, ND96 pH 7.4, 18–22°C, 0 mV from −90 mV), 1520 ± 183 nM; against KV1.5 it was greater than 1000 nM; against KV1.4 it was greater than 1000 nM; on KV1.3 [6] (hKV1.3, Xenopus oocytes, two-electrode voltage clamp, ND96 pH 7.4, 18–22°C, 0 mV from −90 mV, mean ± SEM, n ≥ 3), 9.1 ± 0.4 nM. On KV1.3 [6] (ratio of IC50 values KV1.1/KV1.3), the KV1.1/KV1.3 selectivity factor worked out at 60.
Turning to Recombinant MeKTx13-3 (peptide), the IC50 of inhibition of potassium current, two-electrode voltage clamp, X. laevis oocytes with rat KV1.1 (rat) [7] is 6.7 nM. For the same molecule, the percent of potassium current blocked at 10 nM toxin, two-electrode voltage clamp, X. laevis oocytes is 25% with rat KV1.2 (rat) [8], 50% with KV1.3 [9], 15% with rat KV1.6 (rat) [10] and greater than 95% with rat KV1.1 (rat) [1].
